For test [1], the target named is Beta-1 adrenergic receptor (Rattus norvegicus) (UniProt P18090).
Description: Mean concentration required to increase basal rate of rat atria by 20 beats per minute
Test [2] shares this target. The source holds these as a separate data set.
Description: (§1) Agonistic activity for Beta-1 adrenergic receptor was estimated from it's chronotropic effect on rat atria
Test [3] has as its target Beta-2 adrenergic receptor (Rattus norvegicus) (UniProt P10608). As to the kind of experiment: Agonistic activity for Beta-2 adrenergic receptor was assessed by it's inhibitory effect on spontaneous contractions in isolated rat uterus.
Test [4] concerns the target Beta-1 adrenergic receptor (Rattus norvegicus) (UniProt P18090). This is another data set of the same source.
Description: as §1

Molecules are shown by their SMILES.

The term EC20 denotes the concentration needed for an effect of 20%. A higher EC20 goes with a need for much substance. For orientation: IC50 means the concentration needed to halve the response being measured. Higher therefore signals lower potency.

Chain of Beta-1 adrenergic receptor (Rattus norvegicus) (P18090 whole entry, looked up): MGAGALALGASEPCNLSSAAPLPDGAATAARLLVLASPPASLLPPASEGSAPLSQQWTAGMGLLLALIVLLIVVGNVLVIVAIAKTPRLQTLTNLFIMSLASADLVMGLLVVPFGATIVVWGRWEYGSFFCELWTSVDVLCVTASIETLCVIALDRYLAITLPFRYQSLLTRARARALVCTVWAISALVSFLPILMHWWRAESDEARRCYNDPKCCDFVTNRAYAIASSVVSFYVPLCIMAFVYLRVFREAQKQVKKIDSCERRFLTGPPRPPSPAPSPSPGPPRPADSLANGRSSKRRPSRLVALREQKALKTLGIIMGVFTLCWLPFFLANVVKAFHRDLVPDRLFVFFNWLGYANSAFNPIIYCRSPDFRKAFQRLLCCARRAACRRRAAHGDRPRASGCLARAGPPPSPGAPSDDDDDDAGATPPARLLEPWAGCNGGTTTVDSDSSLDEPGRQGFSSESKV
Chain of Beta-2 adrenergic receptor (Rattus norvegicus) (P10608 whole entry, looked up): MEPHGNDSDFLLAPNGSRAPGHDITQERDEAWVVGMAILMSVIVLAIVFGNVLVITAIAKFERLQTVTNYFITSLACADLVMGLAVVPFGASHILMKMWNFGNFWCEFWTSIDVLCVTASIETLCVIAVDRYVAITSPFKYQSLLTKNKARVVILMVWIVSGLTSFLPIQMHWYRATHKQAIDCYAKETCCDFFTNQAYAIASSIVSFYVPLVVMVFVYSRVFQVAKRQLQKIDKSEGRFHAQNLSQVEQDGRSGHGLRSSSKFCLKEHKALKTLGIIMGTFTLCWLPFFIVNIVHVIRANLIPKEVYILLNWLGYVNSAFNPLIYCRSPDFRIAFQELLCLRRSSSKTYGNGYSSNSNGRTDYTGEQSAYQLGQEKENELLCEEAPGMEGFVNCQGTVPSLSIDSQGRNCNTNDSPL

As to `C[C@@H](NCCc1ccc(OCC(=O)O)c(Cl)c1)[C@H](O)c1ccc(O)cc1`, in test [1], the 20% effect level (EC20) was put at 21 µM. For the same compound, the pEC20 in test [2] came out at 4.68.

Regarding `C[C@H](NCCc1ccc(OCC(=O)O)c(Cl)c1)[C@@H](O)c1ccc(O)cc1`, the EC20 in test [1] is 55 µM. Also, in test [2], the pEC20 turned out to be 4.26.

The compound `C[C@H](NCCc1ccc(OCC(=O)O)c(Cl)c1)[C@H](O)c1ccc(O)cc1` gave an EC20 in test [1] of over 100 µM.

In the case of `C[C@H](Cc1ccc(OCC(=O)O)cc1)NC[C@H](O)c1cccc(Cl)c1` (relative stereo), the half-inhibitory concentration (IC50) in test [3] is 0.00912 µM. In other words, the single-digit nanomolar range.

As for `C[C@@H](NCCc1ccc(OCC(=O)O)c(Cl)c1)[C@@H](O)c1ccc(O)cc1`, the 20% effect level in test [1] (EC20) was put at 14 µM. Also, the pEC20 in test [4] stood at 4.86.

For `CCOC(=O)COc1ccc(CCNC(C)C(O)c2ccc(O)cc2)cc1Cl` (stereo not given), the concentration for an effect of 20% (EC20) in test [1] worked out at 1.6 µM. The compound also came in with a pEC20 in test [2] of 5.8.
